Counter-ions that a name gives are not always drawn.
System: not given
Assay: not given
Conditions: not given

Row | SMILES | melting point [°C]
1 | CCC(CC)c1ccc(Cl)c2nc(Nc3c(C)cc(Br)cc3OC)n(C)c12 [Example 77, N-(4-Bromo-2-methoxy-6-methylphenyl)-4-chloro-7-(1-ethylpropyl)-1-methyl-1H-benzimidazol-2-amine] | 218 to 220
2 | CCC(CC)c1ccc(OC)c2nc(Oc3c(C)cc(Cl)cc3Cl)n(C)c12 [Example 145, 2-(2,4-Dichloro-6-methylphenoxy)-7-(1-ethylpropyl)-4-methoxy-1-methyl-1H-benzimidazole] | 130 to 131
3 | CCC(CC)c1ccc(Cl)c2nc(Nc3ccc(Cl)cc3Br)n(C)c12 [Example 84, N-(2-Bromo-4-chlorophenyl)-4-chloro-7-(1-ethylpropyl)-1-methyl-1H-benzimidazol-2-amine] | 136 to 138
4 | CCCC(CCC)c1ccc(Cl)c2nc(Nc3c(C)cc(Br)cc3C)n(C)c12 [Example 115, N-(4-Bromo-2,6-dimethylphenyl)-4-chloro-1-methyl-7-(1-propylbutyl)-1H-benzimidazol-2-amine] | 234 to 236
5 | CCC(CC)c1cc(Br)cc2nc(Oc3c(C)cc(Cl)cc3C)n(C)c12 [Example 136, 5-Bromo-2-(4-chloro-2,6-dimethylphenoxy)-7-(1-ethylpropyl)-1-methyl-1H-benzimidazole] | 214 to 216
6 | CCC(CC)c1ccc(Cl)c2nc(Nc3c(Cl)cc(OC(F)(F)F)cc3Cl)n(C)c12 [Example 79, 4-Chloro-N-[2,6-dichloro-4-(trifluoromethoxy)phenyl]-7-(1-ethylpropyl)-1-methyl-1H-benzimidazol-2-amine] | 147 to 149
7 | COc1cc(Cl)cc(C)c1Nc1nc2c(Cl)ccc(C(=O)C(C)(C)C)c2n1C [Example 105, 1-{4-Chloro-2-[(4-chloro-2-methoxy-6-methylphenyl)amino]-1-methyl-1H-benzimidazol-7-yl}-2,2-dimethylpropan-1-one] | 249 to 250
8 | CCC(CC)c1ccc(Cl)c2nc(Nc3ccc(Cl)cc3Cl)n(C)c12 [Example 80, 4-Chloro-N-(2,4-dichlorophenyl)-7-(1-ethylpropyl)-1-methyl-1H-benzimidazol-2-amine] | 130 to 132
9 | CCC(CC)c1ccc(C#N)c2nc(Oc3c(C)cc(Cl)cc3Cl)n(C)c12 [Example 151, 2-(2,4-Dichloro-6-methylphenoxy)-7-(1-ethylpropyl)-1-methyl-1H-benzimidazole-4-carbonitrile] | 192
10 | CCC(CC)c1ccc(Cl)c2nc(Nc3c(C)cc(Br)cc3C)n(C)c12 [Example 82, N-(4-Bromo-2,6-dimethylphenyl)-4-chloro-7-(1-ethylpropyl)-1-methyl-1H-benzimidazol-2-amine] | 247 to 249
11 | CCC(CC)c1ccc(Cl)c2nc(Oc3c(Cl)cc(N(C)C)cc3Cl)n(C)c12 [Example 142, 3,5-Dichloro-4-{[4-chloro-7-(1-ethylpropyl)-1-methyl-1H-benzimidazol-2-yl]oxy}-N,N-dimethylaniline] | 200 to 202
12 | CCC(CC)c1ccc(Cl)c2nc(Oc3c(Cl)cc(Cl)cc3Cl)n(C)c12 [Example 138, 4-Chloro-7-(1-ethylpropyl)-1-methyl-2-(2,4,6-trichlorophenoxy)-1H-benzimidazole] | 155 to 157
13 | CCCC(CCC)c1ccc(Cl)c2nc(Nc3c(C)cc(Br)cc3OC)n(C)c12 [Example 89, N-(4-Bromo-2-methoxy-6-methylphenyl)-4-chloro-1-methyl-7-(1-propylbutyl)-1H-benzimidazol-2-amine] | 210 to 211
14 | CCC(CC)c1ccc(Br)c2nc(Nc3c(C)cc(Cl)cc3OC)n(C)c12 [Example 96, 4-Bromo-N-(4-chloro-2-methoxy-6-methylphenyl)-7-(1-ethylpropyl)-1-methyl-1H-benzimidazol-2-amine] | 198 to 199
15 | CCCC(CCC)c1ccc(Cl)c2nc(Nc3c(C)cc(Cl)cc3C)n(C)c12 [Example 114, 4-Chloro-N-(4-chloro-2,6-dimethylphenyl)-1-methyl-7-(1-propylbutyl)-1H-benzimidazol-2-amine] | 230 to 232
16 | CCC(CC)c1ccc(Cl)c2nc(Oc3c(C)cc(Cl)cc3C)n(C)c12 [Example 125, 4-Chloro-2-(4-chloro-2,6-dimethylphenoxy)-7-(1-ethylpropyl)-1-methyl-1H-benzimidazole] | 168 to 169
17 | CCC(CC)c1ccc(C(=O)OC)c2nc(Oc3c(C)cc(Cl)cc3Cl)n(C)c12 [Example 153, Methyl 2-(2,4-dichloro-6-methylphenoxy)-7-(1-ethylpropyl)-1-methyl-1H-benzimidazole-4-carboxylate] | 177 to 178
18 | CCCC(CCC)c1ccc(Cl)c2nc(Oc3c(Cl)cc(Cl)cc3Cl)n(C)c12 [Example 132, 4-Chloro-1-methyl-7-(1-propylbutyl)-2-(2,4,6-trichlorophenoxy)-1H-benzimidazole] | 148 to 150
19 | CCC(CC)c1ccc(O)c2nc(Oc3ccc(Cl)cc3Br)n(C)c12 [Example 147, 2-(2-Bromo-4-chlorophenoxy)-7-(1-ethylpropyl)-1-methyl-1H-benzimidazol-4-ol] | 175 to 177
20 | CCCC(CCC)c1ccc(Cl)c2nc(Nc3cc(C(F)(F)F)c(Cl)cc3Cl)n(C)c12 [Example 113, 4-Chloro-N-[2,4-dichloro-5-(trifluoromethyl)phenyl]-1-methyl-7-(1-propylbutyl)-1H-benzimidazol-2-amine] | 206 to 208
21 | CCC(CC)c1ccc(Cl)c2nc(Oc3c(N(C)C)cc(C)nc3C)n(C)c12 [Example 141, 3-{[4-Chloro-7-(1-ethylpropyl)-1-methyl-1H-benzimidazol-2-yl]oxy}-N,N,2,6-tetramethylpyridin-4-amine] | 175 to 177
22 | CCC(CC)c1ccc(Cl)c2nc(Oc3ccc(Cl)cc3Cl)n(C)c12 [Example 98, 4-Chloro-2-(2,4-dichlorophenoxy)-7-(1-ethylpropyl)-1-methyl-1H-benzimidazole] | 87 to 89

Biological target: T1, human CRF receptor (Homo sapiens, UniProt P34998)
T1 construct: expressed in transfected cells; host or cells: CHO cells (membrane fraction)
T1 sequence (P34998 24-415): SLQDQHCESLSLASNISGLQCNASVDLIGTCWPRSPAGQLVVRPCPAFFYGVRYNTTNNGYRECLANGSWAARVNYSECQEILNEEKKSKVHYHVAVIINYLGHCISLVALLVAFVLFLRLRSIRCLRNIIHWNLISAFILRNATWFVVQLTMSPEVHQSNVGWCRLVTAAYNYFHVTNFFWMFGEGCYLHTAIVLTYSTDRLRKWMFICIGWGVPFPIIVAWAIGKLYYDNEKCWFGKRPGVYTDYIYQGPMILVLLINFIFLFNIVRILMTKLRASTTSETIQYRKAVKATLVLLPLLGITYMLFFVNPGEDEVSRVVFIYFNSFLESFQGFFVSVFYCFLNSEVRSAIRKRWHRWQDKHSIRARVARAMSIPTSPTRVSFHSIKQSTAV
Assay: Corticotropin-releasing factor (CRF) receptor binding experiment with 125I-CRF
Conditions: 1000 nM test compound; human CRF receptor expressing CHO cellular membrane fraction; 50 pM 125I-CRF; read-out: Binding inhibitory rate (%) 1000 nM
Description: A receptor binding experiment was carried out using a human CRF receptor expressing CHO cellular membrane fraction and ovine CRF, [^125I]-tyr^0 (^125I-CRF). 1000 nM of a test compound was incubated with 1 μg of human CRF receptor expressing CHO cellular membrane fraction and 50 pM of ^125I-CRF in a binding assay buffer (50 mM Tris-HCl, 5 mM EDTA, 10 mM MgCl2, 0.05% CHAPS, 0.1% BSA, 0.5 mM PMSF, 0.1 μg/ml pepstatin, 20 μg/ml leupeptin, pH 7.5). In addition, for measuring nonspecific binding (NSB), 0.1 μM unlabelled human Urocortin was incubated with 1 μg of human CRF receptor expressing CHO cellular membrane fraction and 50 pM of ^125I-CRF in a binding assay buffer. After a binding reaction was carried out at room temperature for 1.5 hour, the membrane was entrapped on a glass filter (UniFilter plate GF-C/Perkin Elmer) by suction filtration using a cell harvester (Perkin Elmer), and washed with ice-cooled 50 mM Tris-HCl (pH 7.5). After drying the glass filter, a liquid scintillation cocktail (Microscinti 0, Perkin Elmer) was added, and the radioactivity of ^125I-CRF remaining on a glass filter was measured using Topcount (Perkin Elmer).
(TB−SB)/(TB−NSB)×100 (SB: radioactivity when a compound is added, TB: maximum binding radioactivity, NSB: nonspecific binding radioactivity) was calculated to obtain a binding inhibitory rate under the presence of 1,000 nM of each test substances. The IC50 values were calculated by using GraphPad Prism software.

Row | SMILES | inhibition at 1 µM [%]
23 | CCC(CC)c1ccc(Cl)c2nc(Nc3c(C)cc(Br)cc3OC)n(C)c12 [Example 77, N-(4-Bromo-2-methoxy-6-methylphenyl)-4-chloro-7-(1-ethylpropyl)-1-methyl-1H-benzimidazol-2-amine] | > 80
24 | COc1cc(Br)cc(C)c1Nc1nc2cccc(-n3c(C)ccc3C)c2n1C [Example 69, N-(4-Bromo-2-methoxy-6-methylphenyl)-7-(2,5-dimethyl-1H-pyrrol-1-yl)-1-methyl-1H-benzimidazol-2-amine] | > 80
25 | CCC(CC)c1ccc(Cl)c2nc(Nc3ccc(Cl)cc3Br)n(C)c12 [Example 84, N-(2-Bromo-4-chlorophenyl)-4-chloro-7-(1-ethylpropyl)-1-methyl-1H-benzimidazol-2-amine] | > 80
26 | CCCC(CC)c1nccc2nc(Nc3c(C)cc(Br)cc3OC)n(C)c12 (centres unmarked) [Example 9, N-(4-Bromo-2-methoxy-6-methylphenyl)-4-(1-ethylbutyl)-3-methyl-3H-imidazo[4,5-c]pyridin-2-amine] | > 80
27 | CCCC(CCC)c1cccc2nc(Nc3c(C)cc(Br)cc3OC)n(C)c12 [Example 1, N-(4-Bromo-2-methoxy-6-methylphenyl)-1-methyl-7-(1-propylbutyl)-1H-benzimidazol-2-amine Hydrochloride] | > 80
28 | CCC(CC)c1ccc(C)c2nc(Nc3c(C)cc(Cl)cc3OC)n(C)c12 [Example 101, N-(4-Chloro-2-methoxy-6-methylphenyl)-7-(1-ethylpropyl)-1,4-dimethyl-1H-benzimidazol-2-amine] | > 80
29 | CNCc1ccccc1-c1cccc2nc(Nc3c(C)cc(Cl)cc3OC)n(C)c12 [Example 64, N-(4-Chloro-2-methoxy-6-methylphenyl)-1-methyl-7-{2-[(methylamino)methyl]phenyl}-1H-benzimidazol-2-amine] | > 80
30 | CCC(CC)c1ccc(Cl)c2nc(Nc3c(C)cc(Cl)cc3OC)n(CCO)c12 [Example 103, 2-[4-Chloro-2-[(4-chloro-2-methoxy-6-methylphenyl)amino]-7-(1-ethylpropyl)-1H-benzimidazol-1-yl]ethanol] | > 80

Same assay, conditions: human CRF receptor expressing CHO cellular membrane fraction; 125I-CRF; GraphPad Prism

Row | SMILES | IC50 [nM]
31 | CCC(CC)c1ccc(Cl)c2nc(Nc3c(C)cc(Br)cc3OC)n(C)c12 [Example 77, N-(4-Bromo-2-methoxy-6-methylphenyl)-4-chloro-7-(1-ethylpropyl)-1-methyl-1H-benzimidazol-2-amine] | 10 to 50
32 | CCC(CC)c1ccc(OC)c2nc(Oc3c(C)cc(Cl)cc3Cl)n(C)c12 [Example 145, 2-(2,4-Dichloro-6-methylphenoxy)-7-(1-ethylpropyl)-4-methoxy-1-methyl-1H-benzimidazole] | < 10
33 | CCc1ccccc1-c1cccc2nc(Nc3c(C)cc(Cl)cc3OC)n(C)c12 [Example 15, N-(4-Chloro-2-methoxy-6-methylphenyl)-7-(2-ethylphenyl)-1-methyl-1H-benzimidazol-2-amine] | 10 to 50
34 | CCC(CC)c1ccc(C)c2nc(Nc3c(C)cc(Cl)cc3OC)n(C)c12 [Example 101, N-(4-Chloro-2-methoxy-6-methylphenyl)-7-(1-ethylpropyl)-1,4-dimethyl-1H-benzimidazol-2-amine] | < 10
35 | CCc1cc(CC)n(-c2cccc3nc(Nc4c(C)cc(Br)cc4OC)n(C)c23)n1 [Example 66, N-(4-Bromo-2-methoxy-6-methylphenyl)-7-(3,5-diethyl-1H-pyrazol-1-yl)-1-methyl-1H-benzimidazol-2-amine] | 10 to 50

Reference: patent publication US8163935B2, “Fused heterocyclic compounds” (Takeda Pharmaceutical Company Limited, priority 2005, dated 2012)
